ChEMBL document CHEMBL1159278, “An antimitotic and cytotoxic chalcone from Fissistigma lanuginosum” (J Nat Prod, 1995)
pIC50: −log10 of the molar value. Values after ≈ are worked out from the molar mass of the structure shown.

What was measured:
[1] = Inhibition of tubulin assembly into microtubules
KB = test: Cytotoxicity against human KB cells; type: functional, cell-based

SMILES	pIC50 [1]	IC50 (KB) [µg/mL]
COc1c(O)c(OC)c(C(=O)/C=C/c2ccccc2)c(O)c1OC [PEDICIN]	3.52	–
COc1c(O)c(OC)c(C(=O)[C@@H]2CC=C(CCC=C(C)C)C[C@H]2c2ccccc2)c(O)c1OC [FISSISTIN]	–	0.15 (≈ 0.321 µM)
COc1c(O)c(OC)c(C(=O)[C@@H]2CC(CCC=C(C)C)=CC[C@H]2c2ccccc2)c(O)c1OC [ISOFISSISTIN]	–	0.15 (≈ 0.321 µM)
CC[C@]1(O)C[C@@H]2CN(CCc3c([nH]c4ccccc34)[C@@](C(=O)OC)(c3cc4c(cc3OC)N(C)[C@H]3[C@@](O)(C(=O)OC)[C@H](OC(C)=O)[C@]5(CC)C=CCN6CC[C@]43[C@@H]65)C2)C1 [VINBLASTINE]	5.40	–
